According to the kinase profiling compilation of Christmann-Franck et al. (2016):
“And” between values parts separate entries of the source, which are not always exact repeats. Equal entries are not always repeated.

Legend:
Assay in all cases: Caliper, Mobility shift assay off-chip
[1] = biological target: STK38L (human) (UniProt Q9Y2H1)
[2] = biological target: FER (human) (UniProt P16591)
[3] = biological target: TXK (human) (UniProt P42681)
[4] = biological target: JAK3 JH1 JH2 (human) (UniProt P52333)
[5] = biological target: RPS6KA4 KD1 KD2 (human) (UniProt O75676)
RPS6KA4 KD1 KD2 (human), sequence (O75676 whole entry, looked up): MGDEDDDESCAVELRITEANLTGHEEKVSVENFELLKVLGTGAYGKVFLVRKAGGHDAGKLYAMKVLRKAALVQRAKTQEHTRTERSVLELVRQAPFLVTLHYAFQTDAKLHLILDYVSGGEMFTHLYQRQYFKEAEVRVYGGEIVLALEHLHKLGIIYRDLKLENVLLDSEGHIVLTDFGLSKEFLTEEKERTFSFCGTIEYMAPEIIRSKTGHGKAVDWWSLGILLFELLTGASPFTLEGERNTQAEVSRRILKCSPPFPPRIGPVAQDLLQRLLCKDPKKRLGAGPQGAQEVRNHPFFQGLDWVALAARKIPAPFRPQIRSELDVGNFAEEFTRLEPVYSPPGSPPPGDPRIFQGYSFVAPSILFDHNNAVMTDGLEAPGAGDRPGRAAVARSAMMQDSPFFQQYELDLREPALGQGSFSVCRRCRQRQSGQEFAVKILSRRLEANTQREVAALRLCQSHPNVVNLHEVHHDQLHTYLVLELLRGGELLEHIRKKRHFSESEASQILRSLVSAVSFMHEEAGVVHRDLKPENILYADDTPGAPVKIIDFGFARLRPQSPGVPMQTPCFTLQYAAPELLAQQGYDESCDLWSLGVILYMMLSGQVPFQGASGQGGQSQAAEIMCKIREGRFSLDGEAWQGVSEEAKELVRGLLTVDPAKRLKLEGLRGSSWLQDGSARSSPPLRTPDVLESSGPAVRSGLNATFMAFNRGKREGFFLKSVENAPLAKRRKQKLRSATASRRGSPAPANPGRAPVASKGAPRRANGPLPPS

[6] = biological target: ALK (human) (UniProt Q9UM73)
[7] = biological target: PLK3 (human) (UniProt Q9H4B4)
PLK3 (human), sequence (Q9H4B4 whole entry, looked up): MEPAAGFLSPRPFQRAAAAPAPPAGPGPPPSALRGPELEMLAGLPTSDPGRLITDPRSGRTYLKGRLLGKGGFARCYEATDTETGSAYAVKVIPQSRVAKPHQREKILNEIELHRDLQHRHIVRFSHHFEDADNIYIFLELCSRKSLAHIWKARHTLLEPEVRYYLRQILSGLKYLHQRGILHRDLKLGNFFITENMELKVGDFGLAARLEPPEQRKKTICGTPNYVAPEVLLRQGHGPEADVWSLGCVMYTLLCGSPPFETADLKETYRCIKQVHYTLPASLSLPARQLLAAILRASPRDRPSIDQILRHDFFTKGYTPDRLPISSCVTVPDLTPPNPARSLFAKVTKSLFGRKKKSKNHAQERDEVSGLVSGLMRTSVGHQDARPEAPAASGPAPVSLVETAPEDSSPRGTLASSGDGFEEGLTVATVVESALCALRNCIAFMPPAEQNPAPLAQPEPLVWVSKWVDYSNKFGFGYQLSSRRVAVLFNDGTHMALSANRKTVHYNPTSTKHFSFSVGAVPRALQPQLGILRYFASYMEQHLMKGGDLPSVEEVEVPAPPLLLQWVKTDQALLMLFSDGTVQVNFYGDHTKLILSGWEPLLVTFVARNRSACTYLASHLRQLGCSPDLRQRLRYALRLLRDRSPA

[8] = biological target: CSNK1G3 (human) (UniProt Q9Y6M4)
CSNK1G3 (human), sequence (Q9Y6M4 whole entry, looked up): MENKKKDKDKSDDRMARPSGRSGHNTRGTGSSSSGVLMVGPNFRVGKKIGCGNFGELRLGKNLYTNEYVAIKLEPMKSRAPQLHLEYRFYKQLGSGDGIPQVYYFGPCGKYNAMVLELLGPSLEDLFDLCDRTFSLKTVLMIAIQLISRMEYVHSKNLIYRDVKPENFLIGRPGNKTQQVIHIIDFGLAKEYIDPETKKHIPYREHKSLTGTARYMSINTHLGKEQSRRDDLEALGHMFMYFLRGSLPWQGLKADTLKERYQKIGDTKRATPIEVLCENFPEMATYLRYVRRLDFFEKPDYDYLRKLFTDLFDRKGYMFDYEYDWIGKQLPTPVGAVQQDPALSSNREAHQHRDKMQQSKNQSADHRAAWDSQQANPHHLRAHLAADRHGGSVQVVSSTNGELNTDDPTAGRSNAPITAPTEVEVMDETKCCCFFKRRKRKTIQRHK

[9] = biological target: INSR (human) (UniProt P06213)
[10] = biological target: JAK2 JH1 JH2 (human) (UniProt O60674)
[11] = biological target: NUAK2 (human) (UniProt Q9H093)
[12] = biological target: HIPK1 (human) (UniProt Q86Z02)
[13] = biological target: RPS6KA1 KD1 KD2 (human) (UniProt Q15418)
[14] = biological target: EPHA3 (human) (UniProt P29320)
EPHA3 (human), sequence (P29320 whole entry, looked up): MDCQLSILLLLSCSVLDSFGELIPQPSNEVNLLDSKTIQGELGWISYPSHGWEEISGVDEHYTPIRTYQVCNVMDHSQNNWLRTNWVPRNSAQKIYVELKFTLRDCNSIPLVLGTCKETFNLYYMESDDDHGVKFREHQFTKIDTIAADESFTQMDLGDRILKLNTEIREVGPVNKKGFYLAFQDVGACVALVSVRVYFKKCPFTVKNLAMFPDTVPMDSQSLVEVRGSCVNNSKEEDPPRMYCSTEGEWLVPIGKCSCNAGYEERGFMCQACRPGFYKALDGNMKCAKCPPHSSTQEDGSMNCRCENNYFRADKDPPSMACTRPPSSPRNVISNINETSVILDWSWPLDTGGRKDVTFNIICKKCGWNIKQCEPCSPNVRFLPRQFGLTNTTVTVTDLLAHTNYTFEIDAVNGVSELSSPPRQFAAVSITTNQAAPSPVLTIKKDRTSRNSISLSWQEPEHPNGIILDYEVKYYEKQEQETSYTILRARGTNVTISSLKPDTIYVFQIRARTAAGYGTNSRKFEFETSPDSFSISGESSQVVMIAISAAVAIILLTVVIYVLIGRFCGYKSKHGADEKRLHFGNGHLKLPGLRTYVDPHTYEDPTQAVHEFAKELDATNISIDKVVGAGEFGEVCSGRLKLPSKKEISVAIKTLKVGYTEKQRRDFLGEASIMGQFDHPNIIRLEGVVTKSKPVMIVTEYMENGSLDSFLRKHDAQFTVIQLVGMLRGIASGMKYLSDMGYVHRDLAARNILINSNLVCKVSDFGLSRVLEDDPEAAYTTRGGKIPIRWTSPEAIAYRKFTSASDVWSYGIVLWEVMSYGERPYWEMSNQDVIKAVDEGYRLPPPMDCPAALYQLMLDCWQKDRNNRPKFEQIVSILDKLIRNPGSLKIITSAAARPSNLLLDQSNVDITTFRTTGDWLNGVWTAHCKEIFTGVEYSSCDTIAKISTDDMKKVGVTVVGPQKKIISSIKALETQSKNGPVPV

[15] = biological target: RPS6KA3 KD1 KD2 (human) (UniProt P51812)
[16] = biological target: PRKCB1 (human) (UniProt P05771)
[17] = biological target: SPHK1 (human) (UniProt Q9NYA1)
SPHK1 (human), sequence (Q9NYA1 whole entry, looked up): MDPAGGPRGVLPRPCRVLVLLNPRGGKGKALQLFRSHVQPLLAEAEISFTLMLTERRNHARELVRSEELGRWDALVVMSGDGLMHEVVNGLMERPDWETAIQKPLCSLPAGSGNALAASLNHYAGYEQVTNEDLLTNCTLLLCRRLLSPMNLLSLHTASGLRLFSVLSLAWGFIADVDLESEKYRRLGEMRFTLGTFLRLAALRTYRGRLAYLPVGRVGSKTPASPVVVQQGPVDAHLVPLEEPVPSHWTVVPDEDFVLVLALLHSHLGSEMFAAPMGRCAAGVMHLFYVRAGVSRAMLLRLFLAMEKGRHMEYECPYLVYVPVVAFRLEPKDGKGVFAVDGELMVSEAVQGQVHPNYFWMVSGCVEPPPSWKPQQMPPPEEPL

[18] = biological target: AXL (human) (UniProt P30530)
[19] = biological target: DYRK2 (human) (UniProt Q92630)
[20] = biological target: CLK1 (human) (UniProt P49759)
[21] = biological target: IKBKB (human) (UniProt O14920)
[22] = biological target: MAP4K2 (human) (UniProt Q12851)
[23] = biological target: TEK (human) (UniProt Q02763)
[24] = biological target: PAK3 (human) (UniProt O75914)
[25] = biological target: ROS1 (human) (UniProt P08922)
[26] = biological target: PIM3 (human) (UniProt Q86V86)
[27] = biological target: PIK3CA PIK3R1 (human) (UniProt P27986+P42336)
[28] = biological target: EPHA6 (human) (UniProt Q9UF33)
[29] = biological target: SGK3 (human) (UniProt Q96BR1)
[30] = biological target: MAPK3 (human) (UniProt P27361)
MAPK3 (human), sequence (P27361 whole entry, looked up): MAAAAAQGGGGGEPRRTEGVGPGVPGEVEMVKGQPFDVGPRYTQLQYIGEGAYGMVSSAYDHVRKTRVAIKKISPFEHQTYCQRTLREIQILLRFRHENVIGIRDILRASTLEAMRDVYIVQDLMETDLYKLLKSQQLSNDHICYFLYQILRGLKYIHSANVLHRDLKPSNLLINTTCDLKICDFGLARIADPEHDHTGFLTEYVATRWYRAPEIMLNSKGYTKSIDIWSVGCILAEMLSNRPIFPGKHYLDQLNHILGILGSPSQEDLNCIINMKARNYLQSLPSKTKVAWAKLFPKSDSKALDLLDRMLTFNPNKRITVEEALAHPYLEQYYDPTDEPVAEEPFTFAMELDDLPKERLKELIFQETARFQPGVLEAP

[31] = biological target: ZAP70 (human) (UniProt P43403)
[32] = biological target: BRSK2 (human) (UniProt Q8IWQ3)
BRSK2 (human), sequence (Q8IWQ3 whole entry, looked up): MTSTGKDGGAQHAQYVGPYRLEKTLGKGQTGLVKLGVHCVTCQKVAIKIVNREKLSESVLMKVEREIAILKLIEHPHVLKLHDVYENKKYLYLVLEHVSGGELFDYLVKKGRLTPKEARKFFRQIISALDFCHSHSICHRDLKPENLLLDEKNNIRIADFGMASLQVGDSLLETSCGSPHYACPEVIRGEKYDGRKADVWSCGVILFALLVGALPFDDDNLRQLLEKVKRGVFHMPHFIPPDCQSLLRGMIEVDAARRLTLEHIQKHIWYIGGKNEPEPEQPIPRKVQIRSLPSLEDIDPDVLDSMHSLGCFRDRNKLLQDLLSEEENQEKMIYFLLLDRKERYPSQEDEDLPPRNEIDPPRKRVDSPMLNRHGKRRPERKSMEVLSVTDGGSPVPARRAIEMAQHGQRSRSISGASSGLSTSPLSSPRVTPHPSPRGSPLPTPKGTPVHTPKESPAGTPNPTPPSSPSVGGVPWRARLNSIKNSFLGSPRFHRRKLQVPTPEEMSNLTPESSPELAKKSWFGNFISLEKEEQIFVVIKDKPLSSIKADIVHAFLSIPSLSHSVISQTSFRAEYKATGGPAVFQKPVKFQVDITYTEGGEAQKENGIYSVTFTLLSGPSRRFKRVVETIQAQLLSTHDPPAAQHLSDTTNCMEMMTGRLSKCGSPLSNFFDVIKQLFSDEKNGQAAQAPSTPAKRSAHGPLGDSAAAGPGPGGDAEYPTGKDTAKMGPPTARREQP

[33] = biological target: ALK EML4 (human) (UniProt Q9HC35+Q9UM73)
[34] = biological target: CDK9 (human) (UniProt P50750)

TXK (human), sequence (P42681 whole entry, looked up): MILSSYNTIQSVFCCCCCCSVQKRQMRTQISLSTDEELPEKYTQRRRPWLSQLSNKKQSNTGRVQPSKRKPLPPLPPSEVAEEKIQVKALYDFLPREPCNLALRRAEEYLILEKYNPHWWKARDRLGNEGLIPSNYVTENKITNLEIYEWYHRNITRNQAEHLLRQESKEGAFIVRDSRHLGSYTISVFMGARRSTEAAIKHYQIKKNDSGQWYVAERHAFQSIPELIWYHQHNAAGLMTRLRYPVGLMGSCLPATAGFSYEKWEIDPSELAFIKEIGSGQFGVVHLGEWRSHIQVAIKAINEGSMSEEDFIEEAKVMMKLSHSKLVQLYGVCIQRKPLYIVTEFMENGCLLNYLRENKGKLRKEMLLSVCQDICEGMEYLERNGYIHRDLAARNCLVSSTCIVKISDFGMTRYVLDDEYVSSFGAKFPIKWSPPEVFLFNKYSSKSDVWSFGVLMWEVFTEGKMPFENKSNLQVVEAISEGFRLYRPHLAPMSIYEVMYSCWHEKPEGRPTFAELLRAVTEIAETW

With COc1cc2c(Oc3ccc4[nH]c(C)cc4c3F)ncnc2cc1OCCCN1CCCC1 the inhibition ([1]; compound 0.02 µM) was 8.9%, the inhibition ([1]; compound 0.2 µM) was -0.2% and the inhibition ([2]; compound 0.02 µM) was 8.7%. The inhibition ([2]; compound 0.2 µM) was 11.2%, the inhibition ([3]; compound 0.02 µM) was -0.7% and the inhibition ([3]; compound 0.2 µM) was -0.1%. It also gave an inhibition ([4]; compound 0.02 µM) of 5.1%, an inhibition ([4]; compound 0.2 µM) of 4% and an inhibition ([5]; compound 0.02 µM) of -4.9%. The inhibition ([5]; compound 0.2 µM) was 2.6%, the inhibition ([6]; compound 0.02 µM) was 5.8% and the inhibition ([6]; compound 0.2 µM) was 10.6%. The inhibition ([7]; compound 0.02 µM) was 6%, the inhibition ([7]; compound 0.2 µM) was 7.9% and the inhibition ([8]; compound 0.02 µM) was 2.8%. The inhibition ([8]; compound 0.2 µM) was -1.8%, the inhibition ([9]; compound 0.02 µM) was -0.3% and the inhibition ([9]; compound 0.2 µM) was -2.4%. For the same compound, the inhibition ([10]; compound 0.02 µM) was 4.5%, the inhibition ([10]; compound 0.2 µM) was 4.5% and the inhibition ([11]; compound 0.02 µM) was 8.9%. It also gave an inhibition ([11]; compound 0.2 µM) of -17.5%, an inhibition ([12]; compound 0.02 µM) of -5.7% and an inhibition ([12]; compound 0.2 µM) of -1%. It also gave an inhibition ([13]; compound 0.02 µM) of -3.4%, an inhibition ([13]; compound 0.2 µM) of -3.3% and an inhibition ([14]; compound 0.02 µM) of -6.9%. It also gave an inhibition ([14]; compound 0.2 µM) of -1.2%, an inhibition ([15]; compound 0.02 µM) of 0.1% and an inhibition ([15]; compound 0.2 µM) of -1.8%. The inhibition ([16]; compound 0.02 µM) was 5.1% and 8.3%, the inhibition ([16]; compound 0.2 µM) was 7.3% and 7.5% and the inhibition ([17]; compound 0.02 µM) was -5.6%. For the same compound, the inhibition ([17]; compound 0.2 µM) was -7.8%, the inhibition ([18]; compound 0.02 µM) was 6.9% and the inhibition ([18]; compound 0.2 µM) was 17.7%. It also gave an inhibition ([19]; compound 0.02 µM) of 13.4%, an inhibition ([19]; compound 0.2 µM) of -5.6% and an inhibition ([20]; compound 0.02 µM) of 8.1%. It also gave an inhibition ([20]; compound 0.2 µM) of -6.1%, an inhibition ([21]; compound 0.02 µM) of -4% and an inhibition ([21]; compound 0.2 µM) of -4.5%. For the same compound, the inhibition ([22]; compound 0.02 µM) was 2.6%, the inhibition ([22]; compound 0.2 µM) was 18.4% and the inhibition ([23]; compound 0.02 µM) was 5.8%. The inhibition ([23]; compound 0.2 µM) was 48.5%, the inhibition ([24]; compound 0.02 µM) was -1.7% and the inhibition ([24]; compound 0.2 µM) was 3.3%. It also gave an inhibition ([25]; compound 0.02 µM) of 0.6%, an inhibition ([25]; compound 0.2 µM) of 0.4% and an inhibition ([26]; compound 0.02 µM) of -1.8%. It also gave an inhibition ([26]; compound 0.2 µM) of -6.2%, an inhibition ([27]; compound 0.02 µM) of 26.6% and an inhibition ([27]; compound 0.2 µM) of 34.9%. For the same compound, the inhibition ([28]; compound 0.02 µM) was 37.1%, the inhibition ([28]; compound 0.2 µM) was 95.9% and the inhibition ([29]; compound 0.02 µM) was 8.5%. For the same compound, the inhibition ([29]; compound 0.2 µM) was 1.9%, the inhibition ([30]; compound 0.02 µM) was -1.5% and the inhibition ([30]; compound 0.2 µM) was -5%. It also gave an inhibition ([31]; compound 0.02 µM) of 3.1%, an inhibition ([31]; compound 0.2 µM) of 3.4% and an inhibition ([32]; compound 0.02 µM) of -2.3%. The inhibition ([32]; compound 0.2 µM) was 2.8%, the inhibition ([33]; compound 0.02 µM) was -1.4% and the inhibition ([33]; compound 0.2 µM) was 0.1%. For the same compound, the inhibition ([34]; compound 0.02 µM) was -3.2% and the inhibition ([34]; compound 0.2 µM) was -3.3%.
For Cc1ccc(Nc2nccc(N(C)c3ccc4c(C)n(C)nc4c3)n2)cc1S(N)(=O)=O, the inhibition ([1]; compound 0.02 µM) was -1.5%, the inhibition ([1]; compound 0.2 µM) was 6.6% and the inhibition ([2]; compound 0.02 µM) was 15.1%. The inhibition ([2]; compound 0.2 µM) was 40.1%, the inhibition ([3]; compound 0.02 µM) was 3.3% and the inhibition ([3]; compound 0.2 µM) was 27.4%. The inhibition ([4]; compound 0.02 µM) was 4.1%, the inhibition ([4]; compound 0.2 µM) was 7.7% and the inhibition ([5]; compound 0.02 µM) was -2.4%. It also gave an inhibition ([5]; compound 0.2 µM) of 3.7%, an inhibition ([6]; compound 0.02 µM) of 10.1% and an inhibition ([6]; compound 0.2 µM) of 7.9%. For the same compound, the inhibition ([7]; compound 0.02 µM) was 5.4%, the inhibition ([7]; compound 0.2 µM) was 5.7% and the inhibition ([8]; compound 0.02 µM) was 0.7%. It also gave an inhibition ([8]; compound 0.2 µM) of -0.3%, an inhibition ([9]; compound 0.02 µM) of 0.3% and an inhibition ([9]; compound 0.2 µM) of 4.5%. For the same compound, the inhibition ([10]; compound 0.02 µM) was 4.8%, the inhibition ([10]; compound 0.2 µM) was 11.4% and the inhibition ([11]; compound 0.02 µM) was -16.5%. The inhibition ([11]; compound 0.2 µM) was 6.3%, the inhibition ([12]; compound 0.02 µM) was 2.6% and the inhibition ([12]; compound 0.2 µM) was 7.3%. The inhibition ([13]; compound 0.02 µM) was 0.5%, the inhibition ([13]; compound 0.2 µM) was 5.4% and the inhibition ([14]; compound 0.02 µM) was -4.8%. It also gave an inhibition ([14]; compound 0.2 µM) of -4.4%, an inhibition ([15]; compound 0.02 µM) of 0.7% and an inhibition ([15]; compound 0.2 µM) of 3.1%. For the same compound, the inhibition ([16]; compound 0.02 µM) was 3% and 5.4%, the inhibition ([16]; compound 0.2 µM) was 0.8% and 5.1% and the inhibition ([17]; compound 0.02 µM) was -4.8%. For the same compound, the inhibition ([17]; compound 0.2 µM) was -5.9%, the inhibition ([18]; compound 0.02 µM) was 1.7% and the inhibition ([18]; compound 0.2 µM) was 10.3%. For the same compound, the inhibition ([19]; compound 0.02 µM) was 0.6%, the inhibition ([19]; compound 0.2 µM) was 4.1% and the inhibition ([20]; compound 0.02 µM) was -4.3%. It also gave an inhibition ([20]; compound 0.2 µM) of 6.6%, an inhibition ([21]; compound 0.02 µM) of -3.7% and an inhibition ([21]; compound 0.2 µM) of -2.6%. The inhibition ([22]; compound 0.02 µM) was 2.6%, the inhibition ([22]; compound 0.2 µM) was 28.7% and the inhibition ([23]; compound 0.02 µM) was -4.6%. The inhibition ([23]; compound 0.2 µM) was 2.7%, the inhibition ([24]; compound 0.02 µM) was 5.7% and the inhibition ([24]; compound 0.2 µM) was 2.6%. For the same compound, the inhibition ([25]; compound 0.02 µM) was 17.8%, the inhibition ([25]; compound 0.2 µM) was 69.7% and the inhibition ([26]; compound 0.02 µM) was -3.4%. The inhibition ([26]; compound 0.2 µM) was -4.2%, the inhibition ([27]; compound 0.02 µM) was 64.2% and the inhibition ([27]; compound 0.2 µM) was 68.1%. For the same compound, the inhibition ([28]; compound 0.02 µM) was 3.8%, the inhibition ([28]; compound 0.2 µM) was 22.3% and the inhibition ([29]; compound 0.02 µM) was -0.2%. It also gave an inhibition ([29]; compound 0.2 µM) of -2.7%, an inhibition ([30]; compound 0.02 µM) of -5% and an inhibition ([30]; compound 0.2 µM) of -2.7%. For the same compound, the inhibition ([31]; compound 0.02 µM) was 7%, the inhibition ([31]; compound 0.2 µM) was 13.3% and the inhibition ([32]; compound 0.02 µM) was -2.2%. For the same compound, the inhibition ([32]; compound 0.2 µM) was 0.4%, the inhibition ([33]; compound 0.02 µM) was -0.3% and the inhibition ([33]; compound 0.2 µM) was 6.8%. For the same compound, the inhibition ([34]; compound 0.02 µM) was -2.5% and the inhibition ([34]; compound 0.2 µM) was 5.1%.
